Converted amounts (≈) assume the structure as drawn. Structures can show the parent of a compound that is named as a salt. Where two headings read alike, the source gives them in different places. Non-standard residues stand in square brackets, D forms with d. Residues, ends and D or L forms follow the SMILES beside them. Phe(4-Cl) = N[C@@H](Cc1ccc(Cl)cc1)C(=O)O; dPhe(4-Cl) = N[C@H](Cc1ccc(Cl)cc1)C(=O)O; d2Nal = N[C@H](Cc1ccc2ccccc2c1)C(=O)O; d(hCit) = NC(=O)NCCCC[C@@H](N)C(=O)O; Lys(iPr) = CC(C)NCCCC[C@H](N)C(=O)O; d3Pal = N[C@H](Cc1cccnc1)C(=O)O
Columns and labels:
[1] = Water solubility of teverelix; assay type: physicochemical
Procedure: In some instances, the GnRH antagonist can be teverelix ((Ac-D-NaID-pClPhe-D-Pal-Ser-Tyr-D-Hci-Leu-Lys(iPr)-Pro-D-Ala-NH2). Teverelix is a synthetic decapeptide with a water solubility of approximately 10 mg/mL.

[2] = Phase I study EP-24332T-A004, repeated s.c. injections: tolerability; assay type: in vivo, human; conditions: 2 doses of 60 mg or 90 mg s.c. at 24 h or 48 h interval
Procedure: In a second Phase I study (EP-24332T-A004), a second injection was administered 24 h or 48 h after the first in order to increase and prolong the initial peak, as well as increase the teverelix level and consequently the number of subjects castrated. As the previous Phase I study had shown 10 mg and 30 mg to be insufficient to provide a long-term suppression, 2 doses of 60 mg or 90 mg (6 subjects per group) or placebo (4 subjects) were administered at a 24 h interval and 2 doses of 90 mg at a 48 h interval. […] No critical safety findings were reported. […] The protocol of the study included 6 subjects who received 90 mg Teverelix TFA on D1; D2; D3.

[3] = Clinical study A013, s.c. injection 90 mg days 1, 2 and 3: tolerability; assay type: in vivo, human; conditions: A013: s.c. 90 mg days 1, 2 and 3
Procedure: (§1) Comparison of s.c. injection 90 mg days 1, 2 and 3 vs. IM injection day 1 and 8.

[4] = compared with degarelix; cited from earlier work
[5] = Phase I study D-84812-Z012, single s.c. injection: pharmacokinetics of teverelix; assay type: in vivo, human
[6] = Phase I study D-84812-Z012, single s.c. injection: safety and tolerability; assay type: in vivo, human; conditions: doses up to 90 mg, 32 healthy male volunteers
[7] = Phase II study 2 x 90 mg i.m. Days 1 and 8 (A014): plasma PK of teverelix; assay type: in vivo; conditions: male, human, im; for AUC(0-t) / Cmax / Tmax / AUC(0-inf) / half-life: 90 mg; for AUC(0-t): N=14, read-out: AUC (0-t) Geometric mean; for Cmax: N=14, read-out: Cmax (obs) Geometric mean; for Tmax: N=14, read-out: Tmax (obs) Median
Procedure: In order to test the hypothesis that and IM injection of a GnRH antagonist could be useful as part of a prostate cancer regimen, a Phase II Multicenter, Open-label Study Investigating the Pharmacokinetics, Pharmacodynamics, Efficacy and Safety of a Teverelix 90 mg, TFA formulation was conducted.
(§2) The primary objective was to assess the duration of action of an initial “loading” dose regimen of Teverelix TFA delivered IM in terms of suppression of testosterone to below castrate level (0.5 ng/mL [2 nmol/L]). The secondary objectives were to assess the pharmacodynamics of teverelix in terms of ability to suppress and to maintain plasma testosterone levels below castration level (<0.5 ng/mL [2 nmol/L]) for 3 weeks; to assess the effects on luteinising hormone (LH) and prostate specific antigen (PSA); and to assess the safety of Teverelix in terms of incidence of local and systemic tolerability (adverse events [AEs] and changes in laboratory parameters).
(§3) This was a multicenter, open-label, non-controlled study in 14 patients diagnosed with advanced prostate cancer. Patients were screened for inclusion in the study between 1 and 7 days before first administration. Each patient received 2 intramuscular (i.m.) injections of 90 mg Teverelix TFA, 7 days apart, on Study Days 1 and 8. […] Blood samples were taken for the evaluation of teverelix, testosterone and LH in plasma, and PSA levels. Safety and tolerability were assessed throughout the study by monitoring local and systemic tolerability (AEs, clinical laboratory tests, vital signs an electrocardiogram [ECG]).
The geometric means for Cmax(obs), AUC(0-t), and AUC(0-∞) (along with respective coefficients of variations presented in parenthesis); Tmax median (along with the range of Tmax values presented in parenthesis); and arithmetic mean for T1/2,elim (along with standard deviation presented in parenthesis) are presented in Table 1 for each dose of teverelix IM.
The combined geometric means for AUC and AUC(∞) (along with respective coefficients of variations presented in parenthesis); and arithmetic mean for apparent clearance (CL/F) (along with standard deviation presented in parenthesis) for the two i.m. doses of teverelix are presented in Table 2.

[8] = Phase II study 2 x 90 mg i.m. (A014): tolerability; assay type: in vivo, human; conditions: A014: i.m. 90 mg day 1 and 8
Procedure: as §2, §3, §1

solubility [1]	dose proportionality ([5]; between the 60 mg and 90 mg doses, single s.c.)	half-life ([5]; human, plasma, sc, single s.c. injection, doses up to 90 mg, healthy male volunteers)	AUC(0-t) ([7]; Day 1 (Dose 1): 1 x 90 mg i.m.)	Cmax ([7]; Day 1 (Dose 1): 1 x 90 mg i.m.)	Tmax ([7]; Day 1 (Dose 1): 1 x 90 mg i.m.)	AUC(0-inf) ([7]; Day 1 (Dose 1): 1 x 90 mg i.m., n = 8, read-out: AUC (0-∞) Geometric mean)	half-life ([7]; Day 1 (Dose 1): 1 x 90 mg i.m., n = 8, read-out: T1/2,elim Arithmetic mean (converted))	AUC(0-t) ([7]; Day 8 (Dose 2): 1 x 90 mg i.m.)	AUC(0-inf) ([7]; Day 8 (Dose 2): 1 x 90 mg i.m., N=14, read-out: AUC (0-∞) Geometric mean)	Cmax ([7]; Day 8 (Dose 2): 1 x 90 mg i.m.)	half-life ([7]; Day 8 (Dose 2): 1 x 90 mg i.m., N=14, read-out: T1/2,elim Arithmetic mean (converted))	Tmax ([7]; Day 8 (Dose 2): 1 x 90 mg i.m.)	CL/F ([7]; 2 x 90 mg i.m., N=14, read-out: CL/F Arithmetic mean (converted))	SMILES	local reactions at the injection sites [2]	tolerability [2]	tolerability [3]	local irritation at the administration site [4]	tolerability [6]	tolerability [8]
~10 mg/mL (≈ 6.85 mM)	–	–	–	–	–	–	–	–	–	–	–	–	–	CC(=O)N[C@H](Cc1ccc2ccccc2c1)C(=O)N[C@@H](Cc1ccc(Cl)cc1)C(=O)N[C@H](Cc1cccnc1)C(=O)N[C@@H](CO)C(=O)N[C@H](Cc1ccc(O)cc1)C(=O)N[C@H](CCCCNC(N)=O)C(=O)N[C@@H](CC(C)C)C(=O)N[C@@H](CCCCNC(C)C)C(=O)N1CCC[C@H]1C(=O)N[C@H](C)C(N)=O [teverelix, Ac-D-NaID-pClPhe-D-Pal-Ser-Tyr-D-Hci-Leu-Lys(iPr)-Pro-D-Ala-NH2] (Ac-[d2Nal][Phe(4-Cl)][d3Pal]S[dY][d(hCit)]L[Lys(iPr)]P[dA]-NH2)	only mild local indurations at the injection sites	tolerated well	Very good/good for all patients	less local irritation at the administration site than degarelix	–	–
–	Dose proportionality was demonstrated	252 to 331 h	1.73 µg·h/mL	0.0215 µg/mL	2 h	4.61 µg·h/mL	167 h	8.36 µg·h/mL	9.38 µg·h/mL	0.038 µg/mL	404 h	1 h	249 mL/min	CC(=O)N[C@H](Cc1ccc2ccccc2c1)C(=O)N[C@H](Cc1ccc(Cl)cc1)C(=O)N[C@H](Cc1cccnc1)C(=O)N[C@@H](CO)C(=O)N[C@@H](Cc1ccc(O)cc1)C(=O)N[C@H](CCCCNC(N)=O)C(=O)N[C@@H](CC(C)C)C(=O)N[C@@H](CCCCNC(C)C)C(=O)N1CCC[C@H]1C(=O)N[C@H](C)C(N)=O [Teverelix TFA, teverelix trifluoroacetate] (Ac-[d2Nal][dPhe(4-Cl)][d3Pal]SY[d(hCit)]L[Lys(iPr)]P[dA]-NH2)	–	–	–	–	tolerated well	Very good/good for all patients

— patent US20180214506A1, “COMBINATION ADMINISTRATION OF GNRH ANTAGONISTS” (ANTEV LIMITED, priority 2017, published 2018)
